Experimental data as given in patent publication US20220170052A1, “USE OF BACTERIOCIN-PRODUCING ETHANOLOGENS IN BIOFUEL PRODUCTION” (Wisconsin Alumni Research Foundation, priority 2016, published 2022).
Where no end group is shown, it is not given here.

What was measured:
[1] = test system: wild lactic acid bacteria isolated from ethanol plants; assay: Sensitivity of 15 wild lactic acid bacteria isolated from ethanol plants to inhibitors in corn steep liquor broth (CSL); type: cell-based; details: share of 15 wild LAB isolates, 33° C.
Description: Pediocin and brochocin are known to inhibit a particular range of LAB, and serve as exemplary model bacteriocins. Other bacteriocins with equal or even broader inhibition ranges may be, based on the present disclosure, synthesized and secreted in a similar manner. Table 8 compares the effectiveness of three different LAB bacteriocins against the three antibiotics most commonly utilized in the ethanol industry as well as another industry antimicrobial ingredient, hop acids. […] Fifteen strains representative of the organisms isolated from corn ethanol plants were utilized. […] The bacteriocins were utilized at either levels currently being produced (pediocin), at levels reported by others in the research literature (nisin) using commercially available preparations, or in an assay system that allows for analyzing relatively broad range of concentrations (brochocin inhibition assay by agar diffusion).

[2] = test system: ethanol plant isolates (LAB); assay: Growth (O.D.600) of ethanol plant isolates in corn mash extract with added pediocin; type: cell-based, lactic acid bacteria; details: Pediocin (Sigma) 500 ng/ml in corn mash extract, 37° C.
Description: Screening LAB isolated from ethanol plants for susceptibility to pediocin or brochocin. A variety of microorganisms are known to contaminate bioethanol fermentations, however LAB, particularly lactobacilli, are of primary concern (Beckner et al., 2011). The inventors' laboratory has isolated sixty-two LAB from four ethanol plants in the Midwest region of the United States. This ethanol plant culture collection contains isolates of Lb. fermentum, Lb. plantarum, Lb. brevis, Lb. mucosae, Lb. helveticus, Lb. heilongjiangensis, Lb. amylovorous, Lb. casei, Enterococcus sp. and Pediococcus pentosaceus strains that were gathered from all stages of the ethanol fermentation process. Thirty of these cultures were propagated from frozen by sequential transfers through MRS broth and corn mash extract, a filtrate obtained from corn mash from a bioethanol plant. Pediocin (Sigma) was added at 500 ng/ml to corn mash extract, inoculated with one of the ethanol plant isolates, incubated at 37° C. and growth was monitored by following O.D.600.

In the case of CC[C@H]1OC(=O)[C@H](C)[C@@H](O[C@H]2C[C@@](C)(OC)[C@@H](O)[C@H](C)O2)[C@H](C)[C@@H](O[C@@H]2O[C@H](C)C[C@H](N(C)C)[C@H]2O)[C@](C)(O)C[C@@H](C)C(=O)[C@H](C)[C@@H](O)[C@]1(C)O [Erythromycin], the Resistant ([1]; Erythromycin 1 μg/mL) is reported as 7% and the Sensitive ([1]; Erythromycin 1 μg/mL) is reported as 93%.
In the case of Penicillin, the Resistant ([1]; Penicillin 6 μg/mL) is reported as 33% and the Sensitive ([1]; Penicillin 6 μg/mL) is reported as 77%.
Virginiamycin was tested, and the Resistant ([1]; Virginiamycin 3 μg/mL) was 13% and the Sensitive ([1]; Virginiamycin 3 μg/mL) was 87%.
In the case of nisin, the Resistant ([1]; Nisin 500 ng/mL) is reported as 13% and the Sensitive ([1]; Nisin 500 ng/mL) is reported as 87%.
“pediocin (KYYGNGVTCGKHSCSVDWGKATTCIINNGAMAWATGGHQGNHKC; ends and bridges not checked; cysteine pairing not given here; UniProt P29430 19-62, looked up) [Class IIa bacteriocin; commercial preparation (Sigma), used at the concentration produced by Lb. casei E3 (pNZPed+)]” was tested, and the Resistant ([1]; Pediocin 500 IU/mL) was 67%, the Sensitive ([1]; Pediocin 500 IU/mL) was 33% and the “ethanol plant isolates whose growth was inhibited” value [2] was “five of the thirty”.
